Measured values from patent US9708312B2, “Dihydropyrimidinoisoquinolinones and pharmaceutical compositions thereof for the treatment of inflammatory disorders (GPR84 antagonists)” (GALAPAGOS NV, priority 2012, dated 2017).

Biological target: T1, GPR84 (Homo sapiens, UniProt Q9NQS5)
T1 construct: expressed in transfected cells
Test: GPR84 [35S]GTPγS binding assay, HEPES buffer
Type: biochemical
Conditions: 3,3′ di indolylmethane at EC80, membranes from stable cell line over expressing GPR84
Summary of the method: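 Membranes from a stable GPR84-overexpressing cell line (20 μg/well), pre-incubated with 0.1 μM GDP for 15 min at 4° C, mixed with 0.1 nM [35S]GTPγS and WGA SpA beads in 20 mM HEPES pH 7.4, 5 mM MgCl2, 250 mM NaCl, 0.05% BSA, 75 ug/mL saponin. Incubated 90 min at room temperature; scintillation proximity read after centrifugation.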

T1 sequence (Q9NQS5 whole entry): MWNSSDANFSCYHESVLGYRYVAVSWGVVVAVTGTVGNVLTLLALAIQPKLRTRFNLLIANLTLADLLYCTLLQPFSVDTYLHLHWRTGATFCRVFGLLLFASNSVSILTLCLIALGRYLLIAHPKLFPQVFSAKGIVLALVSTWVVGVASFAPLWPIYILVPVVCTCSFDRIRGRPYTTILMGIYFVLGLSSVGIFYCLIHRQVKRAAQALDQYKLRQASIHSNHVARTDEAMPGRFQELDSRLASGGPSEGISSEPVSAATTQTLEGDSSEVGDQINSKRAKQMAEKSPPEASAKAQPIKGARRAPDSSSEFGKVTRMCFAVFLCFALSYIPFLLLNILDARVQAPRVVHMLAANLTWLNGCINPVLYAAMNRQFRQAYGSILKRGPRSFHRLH

| Structure (SMILES) | IC50 [nM] |
| --- | --- |
| O=c1nc(OCC2COc3ncccc3O2)cc2n1CCc1cc(OCc3noc(C4CC4)n3)ccc1-2 (stereo not drawn) [compound 156, 9-(5-cyclopropyl-[1,2,4]oxadiazol-3-ylmethoxy)-2-(2,3-dihydro-[1,4]dioxino[2,3-b]pyridin-2-ylmethoxy)-6,7-dihydro-pyrimido[6,1-a]isoquinolin-4-one] | 0.01 to 100 |
| CCc1nc(COc2ccc3c(c2)CCn2c-3cc(OCC3COc4ncccc4O3)nc2=O)no1 (stereo not drawn) [compound 155, 2-(2,3-dihydro-[1,4]dioxino[2,3-b]pyridin-2-ylmethoxy)-9-(5-ethyl-[1,2,4]oxadiazol-3-ylmethoxy)-6,7-dihydro-pyrimido[6,1-a]isoquinolin-4-one] | 0.01 to 100 |
| O=c1nc(OCC2CCCO2)cc2n1CCc1cc(OCc3ccc(Cl)cc3)ccc1-2 (stereo not drawn) [compound 21, 9-(4-chloro-benzyloxy)-2-(tetrahydro-furan-2-ylmethoxy)-6,7-dihydro-pyrimido[6,1-a]isoquinolin-4-one] | 0.01 to 100 |
| CCOC(=O)c1ccc(COc2ccc3c(c2)CCn2c-3cc(OCC3COc4ccccc4O3)nc2=O)o1 (stereo not drawn) [compound 85, 5-[2-(2,3-dihydro-benzo[1,4]dioxin-2-ylmethoxy)-4-oxo-6,7-dihydro-4H-pyrimido[6,1-a]isoquinolin-9-yloxymethyl]-furan-2-carboxylic acid ethyl ester] | 0.01 to 100 |
| N#Cc1ccc(-c2ccc3c(c2)CCn2c-3cc(OCC3COc4ncccc4O3)nc2=O)cn1 (stereo not drawn) [compound 162, 5-[2-(2,3-dihydro-[1,4]dioxino[2,3-b]pyridin-2-ylmethoxy)-4-oxo-6,7-dihydro-pyrimido[6,1-a]isoquinolin-9-yl]-pyridine-2-carbonitrile] | 0.01 to 100 |
| CCCCOc1ccc2c(c1)CCn1c-2cc(OCC2CCCO2)nc1=O (stereo not drawn) [compound 10, 9-butoxy-2-(tetrahydro-furan-2-ylmethoxy)-6,7-dihydro-pyrimido[6,1-a]isoquinolin-4-one] | 100 to 500 |
| O=c1nc(OCC2COc3ncccc3O2)cc2n1CCc1cc(OCC3CCCCO3)ccc1-2 (stereo not drawn) [compound 179, 2-(2,3-dihydro-[1,4]dioxino[2,3-b]pyridin-2-ylmethoxy)-9-(tetrahydro-pyran-2-ylmethoxy)-6,7-dihydro-pyrimido[6,1-a]isoquinolin-4-one] | 0.01 to 100 |
| O=c1nc(OCC2COc3ncccc3O2)cc2n1CCc1cc(C#CCNc3ccccc3)ccc1-2 (stereo not drawn) [compound 194, 2-(2,3-dihydro-[1,4]dioxino[2,3-b]pyridin-2-ylmethoxy)-9-(3-phenylamino-prop-1-ynyl)-6,7-dihydro-pyrimido[6,1-a]isoquinolin-4-one] | 0.01 to 100 |
| O=C(COc1ccc2c(c1)CCn1c-2cc(OCC2COc3ccccc3O2)nc1=O)NCc1ccccc1 (stereo not drawn) [compound 78, N-benzyl-2-[2-(2,3-dihydro-benzo[1,4]dioxin-2-ylmethoxy)-4-oxo-6,7-dihydro-4H-pyrimido[6,1-a]isoquinolin-9-yloxy]-acetamide] | 0.01 to 100 |
| O=c1nc(OCC2CCCO2)cc2n1CCc1cc(OCCOc3ccc(Cl)cc3)ccc1-2 (stereo not drawn) [compound 45, 9-[2-(4-chloro-phenoxy)-ethoxy]-2-(tetrahydro-furan-2-ylmethoxy)-6,7-dihydro-pyrimido[6,1-a]isoquinolin-4-one] | 0.01 to 100 |
| O=c1nc(OCC2COc3ncccc3O2)cc2n1CCc1cc(C3=CCOCC3)ccc1-2 (stereo not drawn) [compound 161, 2-(2,3-dihydro-[1,4]dioxino[2,3-b]pyridin-2-ylmethoxy)-9-(3,6-dihydro-2H-pyran-4-yl)-6,7-dihydro-pyrimido[6,1-a]isoquinolin-4-one] | 0.01 to 100 |
| O=c1nc(OCC2COc3ccccc3O2)cc2n1CCc1cc(OCCN3CCCC3)ccc1-2 (stereo not drawn) [compound 79, 2-(2,3-dihydro-benzo[1,4]dioxin-2-ylmethoxy)-9-(2-pyrrolidin-1-yl-ethoxy)-6,7-dihydro-pyrimido[6,1-a]isoquinolin-4-one] | 100 to 500 |
| CC(C)(Oc1ccc2c(c1)CCn1c-2cc(OCC2COc3ccccc3O2)nc1=O)C(=O)N1CCOCC1 (stereo not drawn) [compound 50, 2-(2,3-dihydro-benzo[1,4]dioxin-2-ylmethoxy)-9-(1,1-dimethyl-2-morpholin-4-yl-2-oxo-ethoxy)-6,7-dihydro-pyrimido[6,1-a]isoquinolin-4-one] | 500 to 1000 |
| CNCC#Cc1ccc2c(c1)CCn1c-2cc(OCC2COc3ncccc3O2)nc1=O (stereo not drawn) [compound 171, 2-(2,3-dihydro-[1,4]dioxino[2,3-b]pyridin-2-ylmethoxy)-9-(3-methylamino-prop-1-ynyl)-6,7-dihydro-pyrimido[6,1-a]isoquinolin-4-one] | 500 to 1000 |
| CNC(=O)c1ccc(-c2ccc3c(c2)CCn2c-3cc(OCC3COc4ncccc4O3)nc2=O)cn1 (stereo not drawn) [compound 147, 5-[2-(2,3-dihydro-[1,4]dioxino[2,3-b]pyridin-2-ylmethoxy)-4-oxo-6,7-dihydro-4H-pyrimido[6,1-a]isoquinolin-9-yl]-pyridine-2-carboxylic acid methylamide] | 0.01 to 100 |
| CCC(O)(C#Cc1ccc2c(c1)CCn1c-2cc(OCC2COc3ncccc3O2)nc1=O)CC (stereo not drawn) [compound 186, 2-(2,3-dihydro-[1,4]dioxino[2,3-b]pyridin-2-ylmethoxy)-9-(3-ethyl-3-hydroxy-pent-1-ynyl)-6,7-dihydro-pyrimido[6,1-a]isoquinolin-4-one] | 0.01 to 100 |
| O=C(NC1CCOCC1)c1ccc2c(c1)CCn1c-2cc(OCC2COc3ncccc3O2)nc1=O (stereo not drawn) [compound 195, 2-(2,3-dihydro-[1,4]dioxino[2,3-b]pyridin-2-ylmethoxy)-4-oxo-6,7-dihydro-4H-pyrimido[6,1-a]isoquinoline-9-carboxylic acid (tetrahydro-pyran-4-yl)-amide] | 100 to 500 |
| O=c1nc(OCC2COc3ccccc3O2)cc2n1CCc1cc(OCc3ccccn3)ccc1-2 (stereo not drawn) [compound 28, 2-(2,3-dihydro-benzo[1,4]dioxin-2-ylmethoxy)-9-(pyridin-2-ylmethoxy)-6,7-dihydro-pyrimido[6,1-a]isoquinolin-4-one] | 0.01 to 100 |
| O=c1nc(OCC2CCCO2)cc2n1CCc1cc(OCc3cccc(-c4ccoc4)n3)ccc1-2 (stereo not drawn) [compound 56, 9-(6-furan-3-yl-pyridin-2-ylmethoxy)-2-(tetrahydro-furan-2-ylmethoxy)-6,7-dihydro-pyrimido[6,1-a]isoquinolin-4-one] | 0.01 to 100 |

Continued, values first:

| IC50 [nM] | Structure (SMILES) |
| --- | --- |
| 100 to 500 | CCCn1nnnc1COc1ccc2c(c1)CCn1c-2cc(OCC2CCCO2)nc1=O (stereo not drawn) [compound 64, 9-(1-propyl-1H-tetrazol-5-ylmethoxy)-2-(tetrahydro-furan-2-ylmethoxy)-6,7-dihydro-pyrimido[6,1-a]isoquinolin-4-one] |
| 0.01 to 100 | O=c1nc(OCC2COc3ncccc3O2)cc2n1CCc1cc(NCc3ncco3)ccc1-2 (stereo not drawn) [compound 153, 2-(2,3-dihydro-[1,4]dioxino[2,3-b]pyridin-2-ylmethoxy)-9-[(oxazol-2-ylmethyl)-amino]-6,7-dihydro-pyrimido[6,1-a]isoquinolin-4-one] |
| 0.01 to 100 | O=c1nc(OCC2COc3ncccc3O2)cc2n1CCc1cc(-c3ccc(N4CCOCC4)nc3)ccc1-2 (stereo not drawn) [compound 165, 2-(2,3-dihydro-[1,4]dioxino[2,3-b]pyridin-2-ylmethoxy)-9-(6-morpholin-4-yl-pyridin-3-yl)-6,7-dihydro-pyrimido[6,1-a]isoquinolin-4-one] |
| 100 to 500 | C=CCOc1ccc2c(c1)CCn1c-2cc(OCC2COc3ncccc3O2)nc1=O (stereo not drawn) [compound 77, 9-allyloxy-2-(2,3-dihydro-[1,4]dioxino[2,3-b]pyridin-2-ylmethoxy)-6,7-dihydro-pyrimido[6,1-a]isoquinolin-4-one] |
| 0.01 to 100 | CC(C)(Oc1ccc2c(c1)CCn1c-2cc(OCC2COc3ccccc3O2)nc1=O)C(N)=O (stereo not drawn) [compound 49, 2-[2-(2,3-dihydro-benzo[1,4]dioxin-2-ylmethoxy)-4-oxo-6,7-dihydro-4H-pyrimido[6,1-a]isoquinolin-9-yloxy]-2-methyl-propionamide] |
| 100 to 500 | O=c1nc(OCC2COc3ccccc3O2)cc2n1CCc1cc(OCc3ncco3)ccc1-2 (stereo not drawn) [compound 73, 2-(2,3-dihydro-benzo[1,4]dioxin-2-ylmethoxy)-9-(oxazol-2-ylmethoxy)-6,7-dihydro-pyrimido[6,1-a]isoquinolin-4-one] |
| 100 to 500 | COc1ccc(-c2ccc3c(c2)CCn2c-3cc(OCC3CCCO3)nc2=O)cc1 (stereo not drawn) [compound 101, 9-(4-methoxy-phenyl)-2-(tetrahydro-furan-2-ylmethoxy)-6,7-dihydro-pyrimido[6,1-a]isoquinolin-4-one] |
| 0.01 to 100 | O=c1nc(OCC2COc3ccccc3O2)cc2n1CCc1cc(OCCN3CCOCC3)ccc1-2 (stereo not drawn) [compound 71, 2-(2,3-dihydro-benzo[1,4]dioxin-2-ylmethoxy)-9-(2-morpholin-4-yl-ethoxy)-6,7-dihydro-pyrimido[6,1-a]isoquinolin-4-one] |
| 100 to 500 | O=c1nc(OCC2CCCO2)cc2n1CCc1cc(OCc3nnnn3C3CC3)ccc1-2 (stereo not drawn) [compound 58, 9-(1-cyclopropyl-1H-tetrazol-5-ylmethoxy)-2-(tetrahydro-furan-2-ylmethoxy)-6,7-dihydro-pyrimido[6,1-a]isoquinolin-4-one] |
| 0.01 to 100 | CCCn1nnnc1COc1ccc2c(c1)CCn1c-2cc(OCC2COc3ccccc3O2)nc1=O (stereo not drawn) [compound 69, 2-(2,3-dihydro-benzo[1,4]dioxin-2-ylmethoxy)-9-(1-propyl-1H-tetrazol-5-ylmethoxy)-6,7-dihydro-pyrimido[6,1-a]isoquinolin-4-one] |
| 0.01 to 100 | CC(C)N(C)C(=O)COc1ccc2c(c1)CCn1c-2cc(OCC2COc3ccccc3O2)nc1=O (stereo not drawn) [compound 67, 2-[2-(2,3-Dihydro-benzo[1,4]dioxin-2-ylmethoxy)-4-oxo-6,7-dihydro-4H-pyrimido[6,1-a]isoquinolin-9-yloxy]-N-isopropyl-N-methyl-acetamide] |
